In assay [1] the test system is CAL-148. The assay can be described thus: normalised response (% of control), CellTiter-Glo; higher = more viable cells (100 = DMSO, 0 = benzethonium chloride kill control). To be noted: incubation time: 72 h. In outline:
(§1)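 Compound was dispensed into 384-well plates at 5 concentrations in 10-fold steps spanning a 10,000-fold range specific to that compound. Breast cancer cell lines were added as 20 µl suspension and left for 72 h before CellTox Green fluorescence (485/520 nm) and then CellTiter-Glo luminescence, read after 10 min at room temperature. Each reported value is the normalised signal at one concentration, with 0.1 % DMSO set at 100 and a positive kill control at 0 on each plate.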
A general note: In ATP-based viability assays light output follows the ATP content of the culture.

For assay [2], the system named is MCF-10A. The assay is described as above. To be noted: incubation time: 72 h. The method in brief: as §1
Assay [3] has as its system CAL-85-1. The assay can be described thus: normalised viability (% of control), CellTiter-Blue; higher = more viable cells (about 100 = DMSO control). To be noted: incubation time: 72 h. Here is the method:
(§2)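 DSRT, CellTiter-Blue viability, 72 h incubation. Signal is normalised to DMSO and benzethonium chloride controls. Value is the normalised response at dose 9.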
Background: The colour change of resazurin is a common sign of viable cells or microbes.

The subject of assay [4] is MDA-MB-453. The assay is described as above. To be noted: incubation time: 72 h. As for the experimental part: as §2
The subject of a further assay is DU-4475. Described as above. To be noted: incubation time: 72 h. Here is the method:
as §2

Assay [5] has as its system CAL-148. The assay is described as above. To be noted: incubation time: 72 h. Here is the method:
as §2

For the next assay, the system named is CAL-51. Described as above. To be noted: incubation time: 72 h. Here is the method:
as §2

Assay [6] concerns HDQ-P1. The assay is described as above. To be noted: incubation time: 72 h. Here is the method: as §2
The test system of assay [7] is CAL-85-1. Conditions: 72 h. Here is the method:
(§3)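 Drug sensitivity and resistance testing (DSRT) of breast cancer cell lines in 384-well plates, 5 concentrations in 10-fold dilutions over a compound-specific 10,000-fold range. After 72 h, cytotoxicity was read by CellTox Green fluorescence and viability by CellTiter-Glo luminescence (multiplexed), normalised to DMSO and benzethonium chloride controls. EC50 is the inflection point of the fitted dose-response curve (bottom asymptote free, so it can be relative for partial curves) and is censored at the highest tested concentration. Rows with DSS 0 (no meaningful response) were excluded.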

For the next assay, the system named is MDA-MB-468. To be noted: 72 h. Here is the method:
as §3

Assay [8] concerns MCF-10A. To be noted: 72 h. As for the experimental part:
as §3

Another assay has as its system MDA-MB-231. To be noted: 72 h. As for the experimental part:
as §3

Assay [9] deals with HDQ-P1. To be noted: 72 h. As for the experimental part: as §3
Another assay relates to HCC1599. Conditions: 72 h. In outline:
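Seeding of breast cancer cell lines (20 µl suspension) was done into 384-well plates pre-loaded with compound at 5 concentrations, 10-fold apart, covering a compound-specific 10,000-fold range. The plates were incubated for 72 h, read for CellTox Green fluorescence (485/520 nm), and then read for CellTiter-Glo luminescence after 10 min at room temperature. Every plate was normalised to 0.1 % DMSO and a positive kill control. Curve fitting gave the EC50, censored at the top concentration.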

Assay [10] relates to CAL-148. To be noted: 72 h. As for the experimental part: as §3
The subject of the next assay is Hs578T. Conditions: 72 h. Here is the method:
as §3

The next assay has as its system MFM-223. To be noted: 72 h. As for the experimental part:
as §3

Assay [11] concerns CAL-148. To be noted: 72 h. In outline:
(§4)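 Breast cancer cell lines in 20 µl suspension were seeded onto 384-well plates pre-loaded with compound dissolved in 5 µl medium, then incubated 72 h. For viability, 2.5 µl CellTiter-Blue was added for 2 h at 37 °C and fluorescence read at 560/590 nm. Each plate was normalised to vehicle and a positive kill control and checked by Z'-factor. EC50 comes from the fitted percent-inhibition dose-response curve, censored at the highest concentration; rows with zero drug sensitivity score were dropped.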
This is another data set of the same source.

The subject of a further assay is BT-474. Conditions: 72 h. As for the experimental part: as §3
In assay [12] the test system is MDA-MB-453. To be noted: 72 h. The method in brief:
as §4

Experimental findings from the supplement of paper PMC4862054 are described below.

Several values for one entry are separate records, joined by “and”; a condition that tells them apart may be missing. Equal values may be shown once. Some results are limits rather than exact numbers.

For the compound `NC(=O)NO` [Hydroxyurea] (100000 nM), the normalised response is 102% with CAL-148 [1] and 105% with MCF-10A [2]. In addition, the normalised viability was 90% in the assay with CAL-85-1 [3]; 91.5% with MDA-MB-453 [4]; 121% in the assay with DU-4475; 119% with CAL-148 [5]; 100% in the assay with CAL-51; 123% in the assay with HDQ-P1 [6].

Regarding `COc1cc2c(cc1-c1c(C)noc1C)ncc1[nH]c(=O)n([C@H](C)c3ccccn3)c12` [I-BET151], the “EC50, CellTox Green” value in the assay on CAL-85-1 [7] was 1370 nM; in the assay on MDA-MB-468 it was 3140 nM; in the assay with MCF-10A [8], 6940 nM; in the assay on MDA-MB-231, 8480 nM; in the assay with HDQ-P1 [9], 123 nM.

On to `CC(C)n1nc(-c2ccc3oc(N)nc3c2)c2c(N)ncnc21` [INK128], for which the “EC50, CellTiter-Glo” value in the assay on HCC1599 was 28.8 nM. The entries for the “EC50, CellTox Green” value in the assay on CAL-148 [10], with Hs578T and with MFM-223 were 56.9 nM, 130 nM and 494 nM, respectively.

As for `O=NN(CCCl)C(=O)NC1CCCCC1` [Lomustine] (10000 nM), the normalised response in the assay on CAL-148 [1] is 97%; with MCF-10A [2], 104%. Besides, the normalised viability in the assay on CAL-85-1 [3] came out at 77.4%; in the assay on MDA-MB-453 [4], 47.5%; with DU-4475 it was 91.5%; with CAL-148 [5], 99.1%; in the assay with CAL-51 it was 104%; with HDQ-P1 [6], 111%.

For `O=C(O)CC[C@H]1CC[C@@](c2cc(F)ccc2F)(S(=O)(=O)c2ccc(Cl)cc2)CC1` [MK-0752] (1000 nM), the normalised response is 115% in the assay on CAL-148 [1] and 95.6% with MCF-10A [2]. Besides, the normalised viability with CAL-85-1 [3] turned out to be 104%; with MDA-MB-453 [4], 117%; with DU-4475, 110%; with CAL-148 [5] it was 119%; in the assay on CAL-51, 100%; in the assay with HDQ-P1 [6], 126%.

Take `NC(=O)c1cccc2cn(-c3ccc([C@@H]4CCCNC4)cc3)nc12` [MK-4827] (10000 nM): the figures for the normalised response in the assay with CAL-148 [1] and with MCF-10A [2] were 71.8% and 101%, respectively. In addition, the normalised viability in the assay on CAL-85-1 [3] came out at 73.2%; in the assay with MDA-MB-453 [4] it was 63.2%; in the assay on DU-4475, 32.7%; with CAL-148 [5] it was 59.2%; with CAL-51, 40.7%; with HDQ-P1 [6] it was 94%.

Consider `CO[C@H](C(=O)[C@@H](O)[C@@H](C)O)[C@@H]1Cc2cc3cc(O[C@H]4C[C@@H](O[C@@H]5C[C@@H](O)[C@H](O)[C@@H](C)O5)[C@H](O)[C@@H](C)O4)c(C)c(O)c3c(O)c2C(=O)[C@H]1O[C@H]1C[C@@H](O[C@@H]2C[C@@H](O)[C@@H](O[C@@H]3C[C@](C)(O)[C@H](O)[C@@H](C)O3)[C@@H](C)O2)[C@H](O)[C@@H](C)O1` [Plicamycin] (10000 nM), for which the normalised response in the assay with CAL-148 [1] came out at 6.34%; with MCF-10A [2], 5.35%. For the same compound, the normalised viability is 4.34% and 2.26% in the assay on CAL-85-1 [3]; 6.38% and 4.39% in the assay on MDA-MB-453 [4]; 2.44% and 0.15% in the assay on DU-4475; 7.52% and 8.68% in the assay with CAL-148 [5]; 3.24% and 3.4% in the assay on CAL-51; 22.3% and 16% with HDQ-P1 [6].

Turning to `C[C@]12C=CC(=O)C=C1CC[C@@H]1[C@@H]2C(=O)C[C@@]2(C)[C@H]1CC[C@]2(O)C(=O)CO` [Prednisone] (10000 nM), the normalised response worked out at 109% in the assay with CAL-148 [1] and 113% in the assay on MCF-10A [2]. The normalised viability in the assay on CAL-85-1 [3] turned out to be 103%; in the assay with MDA-MB-453 [4], 88%; in the assay on DU-4475, 99.3%; in the assay on CAL-148 [5], 103%; with CAL-51, 101%; in the assay with HDQ-P1 [6], 122%.

For `CO[C@H]1C[C@@H]2CC[C@@H](C)[C@@](O)(O2)C(=O)C(=O)N2CCCC[C@H]2C(=O)O[C@H]([C@H](C)C[C@@H]2CC[C@@H](O)[C@H](OC)C2)CC(=O)[C@H](C)/C=C(\C)[C@@H](O)[C@@H](OC)C(=O)[C@H](C)C[C@H](C)/C=C/C=C/C=C/1C` [Sirolimus] (100 nM), the figures for the normalised response with CAL-148 [1] and in the assay on MCF-10A [2] were 59.6% and 85.7%, respectively.

As to `CN1CCN(c2nc(C3=C(c4c[nH]c5ccccc45)C(=O)NC3=O)c3ccccc3n2)CC1` [Sotrastaurin] (10000 nM), the normalised response was determined as 84.3% with CAL-148 [1] and 94.2% in the assay on MCF-10A [2]. Also, the normalised viability with CAL-85-1 [3] worked out at 124%; in the assay on MDA-MB-453 [4], 75.6%; with DU-4475, 77.1%; in the assay with CAL-148 [5], 127%; with CAL-51, 108%; in the assay with HDQ-P1 [6], 124%.

As to `CC/C(=C(\c1ccccc1)c1ccc(OCCN(C)C)cc1)c1ccccc1` [Tamoxifen] (10000 nM), the normalised response is 77.7% with CAL-148 [1] and 74.3% in the assay with MCF-10A [2]. The normalised viability in the assay with CAL-85-1 [3] was 102%; in the assay with MDA-MB-453 [4] it was 17.4%; in the assay on DU-4475, 108%; with CAL-148 [5], 120%; in the assay with CAL-51, 90.2%; in the assay with HDQ-P1 [6], 78.5%.

Regarding `COc1cc2c(N3CCN(C(=O)Nc4ccc(OC(C)C)cc4)CC3)ncnc2cc1OCCCN1CCCCC1` [Tandutinib], in the assay on CAL-148 [11], the “EC50, CellTiter-Blue viability” value stood at 605 nM.

As to `C[C@@H](C(=O)O)c1ccc(-c2ccccc2)c(F)c1` [Tarenflurbil], the “EC50, CellTox Green” value with BT-474 is above 10000 nM. Moreover, in the assay on MDA-MB-453 [12], the “EC50, CellTiter-Blue viability” value amounted to 1410 nM.

As for `Cn1nnc2c(C(N)=O)ncn2c1=O` [Temozolomide] (10000 nM), the normalised response was 95.8% in the assay with CAL-148 [1] and 96.2% in the assay with MCF-10A [2]. Further, the normalised viability was determined as 107% with CAL-85-1 [3]; 100% in the assay with MDA-MB-453 [4]; 116% in the assay with DU-4475; 116% in the assay on CAL-148 [5]; 87.8% in the assay with CAL-51; 31.3% in the assay with HDQ-P1 [6].

On to `CC[C@@H]1C(=O)N(C)c2cnc(Nc3ccc(C(=O)N[C@H]4CC[C@H](N5CCN(CC6CC6)CC5)CC4)cc3OC)nc2N1C(C)C` [Volasertib] (1000 nM), for which the results for the normalised response with CAL-148 [1] and in the assay with MCF-10A [2] were 79.9% and 46.9%, respectively. In addition, the normalised viability with CAL-85-1 [3] was found to be 61.5%; in the assay on MDA-MB-453 [4] it was 30.7%; in the assay with DU-4475 it was 35.1%; in the assay on CAL-148 [5], 31.4%; in the assay on CAL-51 it was 7.23%; in the assay on HDQ-P1 [6], 87.8%.
